# According to US9422283B2, “Salts and polymorphs of a substituted imidazopyridinyl-aminopyridine compound” (ArQule, Inc., priority 2014, dated 2016):
# “Also recorded” adds a separate entry of the source. Counter-ions that a name gives are not always drawn. Like-named read-outs stand apart in the source and are kept apart here.
# What was measured:
# Assay type in all cases: physicochemical
# [1] = Aqueous solubility studies of bis-mesylate forms (slurry in deionised water, HPLC, XRPD)
# Experimental: Purity and concentration analyses were carried out using the following method:
# • Pan Number 186003045 Column Temperature: 25° C. Autosampler Temperature: 5° C. Detection: 226 nm Mobile Phase A: 95:5:0.1% Water:Methanol:TFA Mobile Phase B: 95:5:0.1% Methanol:Water:TFA Gradient: See table below for conditions Flow Rate: 1.0 mL/minute Injection Volume: 10 μl Analysis Time: 36 minutes Re-equilibration Time: 4 minutes Data Collection time: 36 minutes Needle Wash: 100% Methanol
# Slurries of Form A, Form B, Form C, Form D, Form E and Form I were created in deionised water and shaken for about 24 hours at ambient temperature (about 22° C.). The resulting solutions were then analyzed by HPLC and the aqueous solubility was determined. The remaining solids were analyzed by XRPD to determine if any form changes had occurred during slurrying.
# [2] = Dynamic Vapour Sorption (DVS)
# Experimental: Approximately 10 mg of sample was placed into a mesh vapour sorption balance pan and loaded into a DVS-1 dynamic vapour sorption balance by Surface Measurement Systems. The sample was subjected to a ramping profile of 0-90%, 90-0% relative humidity (RH) at 10% increments for anhydrous samples and 30-90%, 90-0%, 0-90%, 90-0% for hydrated samples, maintaining the sample at each step until a stable weight had been achieved (99.5% step completion). The weight changes during the sorption/desorption cycles were plotted, allowing the hygroscopic nature of the sample to be determined.
# [3] = Stability testing of bis-mesylate forms for 1 week (XRPD, HPLC purity)
# Experimental: Form A, Form B, Form C, Form D, Form E and Form I were exposed to environments of 40° C./75% RH, ambient light (about 22° C.) and elevated temperature (80° C.) for 1 week to determine the stability. The resulting solids were analyzed by XRPD to establish if any form changes had occurred and by HPLC to determine purity.
# [4] = Solvent solubility screen by solvent addition technique; conditions: for observation in solubility screen: 40° C.; for solubility: 40 °C, thermodynamic from solid, amorphous input, read-out: Solubility (mg/mL) at 40° C.
# Experimental: The amorphous form of Compound A bis-mesylate salt was used as the input material for the solubility screen. Solubility values were estimated by a solvent addition technique in order to provide approximate values for generating slurries during later experiments. Approximately 15 mg of amorphous material was weighed out into 24 vials. Each solvent was added to the appropriate vial in 10 aliquots of 10 μl, 5 aliquots of 20 μl, 3 aliquots of 100 μl and 1 aliquot of 500 μl or until the material dissolved. In between additions, the sample was heated to 40° C. To vials which already contained 1000 μl of solvent but still had observable solid material, a further aliquot of 1000 μl of solvent was added. If 2000 μl of solvent was added without dissolution of the solid, solubility was calculated to be below this point.
# [5] = about 24 hours, ambient temperature
structure (smiles),measurement,setting,value
"Nc1ncccc1-c1nc2ccc(-c3ccccc3)nc2n1-c1ccc(C2(N)CCC2)cc1 [Form D, 3-(3-(4-(1-aminocyclobutyl)phenyl)-5-phenyl-3H-imidazo[4,5-b]pyridin-2-yl)pyridin-2-amine]",polymorphic form after slurrying in deionised water (XRPD),[1]; [5],converted to Form E
same,DVS (summary Table 21),[2],Hydration occurs
same,DVS desorption behaviour / hysteresis,[2],gradual loss of water and hence dehydration was observed as the relative humidity was decreased below 40% RH
same,DVS water uptake,"[2]; second sorption cycle, between 30% and 50% RH, after dehydration at 0% RH",about 12%
same,HPLC purity after stability test,[3]; 40° C./75% RH,about 99.9%
same,polymorphic form after stability test (XRPD),[3]; 40° C./75% RH,converted to Form J
same,HPLC purity after stability test,[3]; 80° C.,about 99.9%
same,polymorphic form after stability test (XRPD),[3]; 80° C.,Form I
same,polymorphic form after stability test (XRPD),[3]; ambient light (about 22° C.),remained unchanged
same,HPLC purity after stability test,[3]; ambient temperature,about 99.9%
"Nc1ncccc1-c1nc2ccc(-c3ccccc3)nc2n1-c1ccc(C2(N)CCC2)cc1 [Form C, 3-(3-(4-(1-aminocyclobutyl)phenyl)-5-phenyl-3H-imidazo[4,5-b]pyridin-2-yl)pyridin-2-amine]",polymorphic form after slurrying in deionised water (XRPD),[1]; [5],converted to Form E
same,DVS (summary Table 21),[2],Non-hygroscopic
same,hygroscopicity (DVS),[2],non-hygroscopic
same,polymorphic form after DVS analysis (XRPD),[2],consistent with Form C; also recorded: Form C post
same,DVS total water uptake,[2]; up to 90% RH,about 0.54%
same,HPLC purity after stability test,[3]; 40° C./75% RH,about 99.9%
same,polymorphic form after stability test (XRPD),[3]; 40° C./75% RH,No change
same,HPLC purity after stability test,[3]; 80° C.,about 99.9%
same,polymorphic form after stability test (XRPD),[3]; 80° C.,No change
same,polymorphic form after stability test (XRPD),[3]; ambient light (about 22° C.),No change
same,HPLC purity after stability test,[3]; ambient temperature,about 99.9%
"Nc1ncccc1-c1nc2ccc(-c3ccccc3)nc2n1-c1ccc(C2(N)CCC2)cc1 [Form E, 3-(3-(4-(1-aminocyclobutyl)phenyl)-5-phenyl-3H-imidazo[4,5-b]pyridin-2-yl)pyridin-2-amine]",solubility at 24 h,"[1]; 22 °C, water, thermodynamic from solid, deionised water, about 24 hours, ambient temperature (about 22° C.); read-out: aqueous solubility (HPLC concentration analysis)",~347000 µg/mL
same,polymorphic form after slurrying in deionised water (XRPD),[1]; [5],remained unchanged; also recorded: Form E
same,DVS (summary Table 21),[2],Two hydration
same,DVS desorption behaviour / hysteresis,[2],dehydration occurred below 10% RH
same,hygroscopicity (DVS),[2],non-hygroscopic
same,polymorphic form after DVS analysis (XRPD),[2],RH Form E post
same,DVS water uptake,"[2]; second sorption cycle, below 20% RH",about 2.78%
same,DVS further water uptake,"[2]; second sorption cycle, between 20% and 40% RH",5.5%
same,HPLC purity after stability test,[3]; 40° C./75% RH,about 99.8%
same,polymorphic form after stability test (XRPD),[3]; 40° C./75% RH,remained unchanged
same,HPLC purity after stability test,[3]; 80° C.,about 99.8%
same,polymorphic form after stability test (XRPD),[3]; 80° C.,some differences were observed
same,polymorphic form after stability test (XRPD),[3]; ambient light (about 22° C.),remained unchanged
same,HPLC purity after stability test,[3]; ambient temperature,about 99.7%
"Nc1ncccc1-c1nc2ccc(-c3ccccc3)nc2n1-c1ccc(C2(N)CCC2)cc1 [Form A, 3-(3-(4-(1-aminocyclobutyl)phenyl)-5-phenyl-3H-imidazo[4,5-b]pyridin-2-yl)pyridin-2-amine]",polymorphic form after slurrying in deionised water (XRPD),[1]; [5],converted to Form E
same,solubility at 24 h,"[1]; deionised water, 22 °C, water, thermodynamic from solid, deionised water, about 24 hours, ambient temperature (about 22° C.); read-out: aqueous solubility (HPLC concentration analysis)",~383000 µg/mL
same,DVS (summary Table 21),[2],Moderately
same,DVS desorption behaviour / hysteresis,[2],No significant hysteresis
same,hygroscopicity (DVS),[2],moderate hygroscopicity
same,polymorphic form after DVS analysis (XRPD),[2],consistent with Form A; also recorded: Form A post
same,DVS water uptake,[2]; up to 70% RH,about 2.4%
same,HPLC purity after stability test,[3]; 40° C./75% RH,about 99.8%
same,polymorphic form after stability test (XRPD),[3]; 40° C./75% RH,No change
same,HPLC purity after stability test,[3]; 80° C.,about 99.8%
same,polymorphic form after stability test (XRPD),[3]; 80° C.,No change
same,polymorphic form after stability test (XRPD),[3]; ambient light (about 22° C.),No change
same,HPLC purity after stability test,[3]; ambient temperature,about 99.7%
"Nc1ncccc1-c1nc2ccc(-c3ccccc3)nc2n1-c1ccc(C2(N)CCC2)cc1 [Compound A bis-mesylate salt, 3-(3-(4-(1-aminocyclobutyl)phenyl)-5-phenyl-3H-imidazo[4,5-b]pyridin-2-yl)pyridin-2-amine]",observation in solubility screen,"[4]; 1,4-Dioxane",Colourless solution
same,observation in solubility screen,[4]; 2-Methyl THF,Colourless solution
same,observation in solubility screen,[4]; 2-Propanol,Good solubility
same,observation in solubility screen,[4]; 2-Propanol:water (50:50),Good solubility
same,solubility,"[4]; aqueous with cosolvent or surfactant or cyclodextrin, 2-Propanol:water (50:50)",~400 mg/mL
same,solubility,"[4]; organic solvent or mixture, 1,4-Dioxane",< 8 mg/mL
same,solubility,"[4]; organic solvent or mixture, 1-Butanol",< 8 mg/mL
same,solubility,"[4]; organic solvent or mixture, 2-Ethoxyethanol",< 8 mg/mL
same,solubility,"[4]; organic solvent or mixture, 2-Methyl THF",< 8 mg/mL
same,solubility,"[4]; organic solvent or mixture, 2-Propanol",~25 mg/mL
same,solubility,"[4]; organic solvent or mixture, Acetone:water (90:10)",~16 mg/mL
same,solubility,"[4]; organic solvent or mixture, Acetone",< 8 mg/mL
same,solubility,"[4]; organic solvent or mixture, Acetonitrile",< 8 mg/mL
same,solubility,"[4]; organic solvent or mixture, Cyclohexane",< 8 mg/mL
same,solubility,"[4]; organic solvent or mixture, Dichloromethane",< 8 mg/mL
same,solubility,"[4]; organic solvent or mixture, Diisopropyl ether",< 8 mg/mL
same,solubility,"[4]; organic solvent or mixture, Dimethylsulfoxide",~126 mg/mL
same,solubility,"[4]; organic solvent or mixture, Ethanol",< 8 mg/mL
same,solubility,"[4]; organic solvent or mixture, Ethyl acetate",< 8 mg/mL
same,solubility,"[4]; organic solvent or mixture, Heptane",< 8 mg/mL
same,solubility,"[4]; organic solvent or mixture, Isopropyl acetate",< 8 mg/mL
same,solubility,"[4]; organic solvent or mixture, Methanol",~40 mg/mL
same,solubility,"[4]; organic solvent or mixture, Methylethyl ketone",< 8 mg/mL
same,solubility,"[4]; organic solvent or mixture, Methylisobutyl ketone",< 8 mg/mL
same,solubility,"[4]; organic solvent or mixture, Tetrahydrofuran",< 8 mg/mL
same,solubility,"[4]; organic solvent or mixture, Toluene",< 8 mg/mL
same,solubility,"[4]; organic solvent or mixture, tert-Butylmethyl ether",< 8 mg/mL
same,solubility,[4]; Water,~769 mg/mL
same,observation in solubility screen,[4]; Acetone:water (90:10),Good solubility
same,observation in solubility screen,[4]; Cyclohexane,Colourless solution
same,observation in solubility screen,[4]; Dichloromethane,Colourless solution
same,observation in solubility screen,[4]; Diisopropyl ether,Colourless solution
same,observation in solubility screen,[4]; Dimethylsulfoxide,Good solubility
same,observation in solubility screen,[4]; Heptane,Colourless solution
same,observation in solubility screen,[4]; Isopropyl acetate,Colourless solution
same,observation in solubility screen,[4]; Methanol,Good solubility
same,observation in solubility screen,[4]; Methylethyl ketone,Colourless solution
same,observation in solubility screen,[4]; Methylisobutyl ketone,Colourless solution
same,observation in solubility screen,[4]; Toluene,Colourless solution
same,observation in solubility screen,[4]; Water,Good solubility
same,observation in solubility screen,[4]; tert-Butylmethyl ether,Colourless solution
